Legend:
[1] = tested on: Unactivated Human T-Cells; test: Uptake of radio labeled Tenofovir in human T-cells in presence and absence of ABC efflux pump inhibitors; type: cell-based; conditions: with specific MRP, BCRP and Pgp inhibitors vs without
Description: ABC efflux pump inhibitors. Briefly, human T-cells in the culture media (1 million/mL) were transferred to 15 mL centrifuge tubes. Radio labeled Tenofovir was added to the control tube and radio labeled Tenofovir along with defined concentrations of efflux pump inhibitors were added to the treatment tubes. The tubes were incubated for 15 minutes under culture conditions (37° C., 5% CO2/95% relative humidity). Following incubation, the tubes were centrifuged at 2000 rpm for 15 min and the supernatant is discarded. Ice cold stop solution (210 mM KCl, 2 mM HEPES [pH 7.4]) was added to stop the reaction. The cells were resuspended in stop solution to ensure washing and centrifuged at 2000 rpm for 15 min. The treatment with stop solution, washing and centrifugation is repeated to ensure through washing. 1 mL lysis solution (0.3 M NaOH, 0.1% Triton X-100) was added to the cell pellet and samples and incubated overnight to ensure complete cell lysis. Intracellular concentrations were analyzed by Beckman LS 6500 automated Scintillation Counter.

[2] = administered orally as disoproxil ester prodrug; cited from earlier work

C[C@H](Cn1cnc2c(N)ncnc21)OCP(=O)(O)O [Tenofovir]
intracellular accumulation of Tenofovir [1]: significant increase
bioavailability [2]: ≥ 20%
